Targets include CDK3 (Homo sapiens, UniProt Q00526); CLK1 (Homo sapiens, UniProt P49759); DYRK1A (Homo sapiens, UniProt Q13627); FLT3(D835Y) (Homo sapiens, UniProt P36888, D835Y); GRK4 (Homo sapiens, UniProt P32298); IRAK3 (Homo sapiens, UniProt Q9Y616); LYN (Homo sapiens, UniProt P07948); MAP4K3 (Homo sapiens, UniProt Q8IVH8); PIK3CD (Homo sapiens, UniProt O00329); PKMYT1 (Homo sapiens, UniProt Q99640); RET(V804L) (Homo sapiens, UniProt P07949, V804L); SRPK3 (Homo sapiens, UniProt Q9UPE1); TESK1 (Homo sapiens, UniProt Q15569); TSSK1B (Homo sapiens, UniProt Q9BXA7); WEE2 (Homo sapiens, UniProt P0C1S8).

What all share (assay): biochemical
Design in all cases: KINOMEscan active-site competition binding, percent of control (100 = no competition)
Conditions in all cases: competition binding, percent control

A further test addresses T1, ADCK3 (Homo sapiens, UniProt Q8NI60).
T1 construct: gene COQ8A

The next test concerns the target T2, DLK (Homo sapiens, UniProt Q12852).
T2 construct: gene MAP3K12

The next test concerns the target T3, DRAK2 (Homo sapiens, UniProt O94768).
T3 construct: gene STK17B

The next test deals with T4, JNK1 (Homo sapiens, UniProt P45983).
T4 construct: gene MAPK8

The target of a further test is T5, NDR2 (Homo sapiens, UniProt Q9Y2H1).
T5 construct: gene STK38L
T5 sequence (Q9Y2H1 whole entry): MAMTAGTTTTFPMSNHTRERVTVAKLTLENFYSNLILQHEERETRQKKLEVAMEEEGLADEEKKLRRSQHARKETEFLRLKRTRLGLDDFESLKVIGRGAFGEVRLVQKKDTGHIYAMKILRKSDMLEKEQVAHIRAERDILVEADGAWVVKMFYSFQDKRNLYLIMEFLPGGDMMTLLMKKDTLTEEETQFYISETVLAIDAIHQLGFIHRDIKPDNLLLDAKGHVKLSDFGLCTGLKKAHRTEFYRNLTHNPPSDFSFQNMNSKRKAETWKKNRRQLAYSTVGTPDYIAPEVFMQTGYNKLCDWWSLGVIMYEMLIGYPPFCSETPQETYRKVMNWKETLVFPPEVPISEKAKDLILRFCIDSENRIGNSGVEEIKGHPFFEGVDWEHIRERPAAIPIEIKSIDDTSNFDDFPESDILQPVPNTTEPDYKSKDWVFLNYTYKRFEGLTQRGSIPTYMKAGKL

In a further test the target is T6, PIP5K2C (Homo sapiens, UniProt Q8TBX8).
T6 construct: gene PIP4K2C

The target in test [1] is T7, RSK4(Kin.Dom.2-C-terminal) (Homo sapiens, UniProt Q9UK32).
T7 construct: gene RPS6KA6; Kin.Dom.2-C-terminal

Another test concerns the target T8, SgK110 (Homo sapiens, UniProt P0C264).
T8 construct: gene SBK3

T3 sequence (O94768 whole entry): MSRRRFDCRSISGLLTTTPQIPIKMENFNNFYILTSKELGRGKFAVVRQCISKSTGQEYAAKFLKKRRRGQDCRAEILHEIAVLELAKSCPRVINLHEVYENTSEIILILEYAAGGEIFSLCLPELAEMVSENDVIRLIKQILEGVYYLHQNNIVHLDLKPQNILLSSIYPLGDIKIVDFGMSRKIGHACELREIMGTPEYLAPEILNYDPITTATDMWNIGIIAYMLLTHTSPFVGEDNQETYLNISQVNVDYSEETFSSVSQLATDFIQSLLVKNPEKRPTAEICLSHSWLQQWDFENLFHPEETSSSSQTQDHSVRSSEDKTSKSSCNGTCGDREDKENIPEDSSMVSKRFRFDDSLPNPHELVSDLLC
TESK1, sequence (Q15569 whole entry): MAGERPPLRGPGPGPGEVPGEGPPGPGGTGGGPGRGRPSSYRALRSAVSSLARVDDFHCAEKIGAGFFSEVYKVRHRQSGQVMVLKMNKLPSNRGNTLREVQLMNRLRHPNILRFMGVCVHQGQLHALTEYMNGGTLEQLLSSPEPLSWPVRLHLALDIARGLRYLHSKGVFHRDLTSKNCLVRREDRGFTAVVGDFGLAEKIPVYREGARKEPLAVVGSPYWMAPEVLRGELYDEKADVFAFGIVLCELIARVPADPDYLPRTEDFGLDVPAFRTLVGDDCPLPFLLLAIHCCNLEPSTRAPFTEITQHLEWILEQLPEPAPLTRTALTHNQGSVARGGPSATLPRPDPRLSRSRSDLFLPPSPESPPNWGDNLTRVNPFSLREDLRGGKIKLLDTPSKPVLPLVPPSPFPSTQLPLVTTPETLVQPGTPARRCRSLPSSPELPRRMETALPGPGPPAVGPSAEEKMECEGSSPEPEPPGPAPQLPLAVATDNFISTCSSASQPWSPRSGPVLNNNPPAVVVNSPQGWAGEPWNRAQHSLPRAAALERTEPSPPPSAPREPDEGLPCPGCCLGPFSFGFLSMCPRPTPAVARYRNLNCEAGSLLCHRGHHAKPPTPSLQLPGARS
T2 sequence (Q12852 whole entry): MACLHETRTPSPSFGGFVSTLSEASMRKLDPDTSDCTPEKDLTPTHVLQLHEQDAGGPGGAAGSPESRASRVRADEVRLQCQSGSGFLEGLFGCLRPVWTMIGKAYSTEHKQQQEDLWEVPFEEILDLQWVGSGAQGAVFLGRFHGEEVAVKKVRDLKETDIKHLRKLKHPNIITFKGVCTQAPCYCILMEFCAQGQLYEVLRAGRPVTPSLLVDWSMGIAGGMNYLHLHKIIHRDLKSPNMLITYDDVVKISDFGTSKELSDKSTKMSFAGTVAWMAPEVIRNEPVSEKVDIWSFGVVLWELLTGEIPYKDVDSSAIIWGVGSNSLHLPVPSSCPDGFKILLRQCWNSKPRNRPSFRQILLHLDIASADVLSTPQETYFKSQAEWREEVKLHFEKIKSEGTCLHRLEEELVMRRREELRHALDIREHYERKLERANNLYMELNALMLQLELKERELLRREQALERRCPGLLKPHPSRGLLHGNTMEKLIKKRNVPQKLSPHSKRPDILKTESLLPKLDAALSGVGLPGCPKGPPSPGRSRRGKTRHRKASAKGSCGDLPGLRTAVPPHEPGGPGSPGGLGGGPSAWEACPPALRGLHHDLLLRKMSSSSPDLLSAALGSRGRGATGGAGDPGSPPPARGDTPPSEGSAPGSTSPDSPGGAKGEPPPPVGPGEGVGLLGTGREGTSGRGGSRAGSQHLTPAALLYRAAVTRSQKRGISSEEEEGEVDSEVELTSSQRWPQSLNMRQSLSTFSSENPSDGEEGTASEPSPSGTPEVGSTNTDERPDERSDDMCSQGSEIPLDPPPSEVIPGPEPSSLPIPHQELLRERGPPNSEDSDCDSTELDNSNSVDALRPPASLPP
MAP4K3, sequence (Q8IVH8 whole entry): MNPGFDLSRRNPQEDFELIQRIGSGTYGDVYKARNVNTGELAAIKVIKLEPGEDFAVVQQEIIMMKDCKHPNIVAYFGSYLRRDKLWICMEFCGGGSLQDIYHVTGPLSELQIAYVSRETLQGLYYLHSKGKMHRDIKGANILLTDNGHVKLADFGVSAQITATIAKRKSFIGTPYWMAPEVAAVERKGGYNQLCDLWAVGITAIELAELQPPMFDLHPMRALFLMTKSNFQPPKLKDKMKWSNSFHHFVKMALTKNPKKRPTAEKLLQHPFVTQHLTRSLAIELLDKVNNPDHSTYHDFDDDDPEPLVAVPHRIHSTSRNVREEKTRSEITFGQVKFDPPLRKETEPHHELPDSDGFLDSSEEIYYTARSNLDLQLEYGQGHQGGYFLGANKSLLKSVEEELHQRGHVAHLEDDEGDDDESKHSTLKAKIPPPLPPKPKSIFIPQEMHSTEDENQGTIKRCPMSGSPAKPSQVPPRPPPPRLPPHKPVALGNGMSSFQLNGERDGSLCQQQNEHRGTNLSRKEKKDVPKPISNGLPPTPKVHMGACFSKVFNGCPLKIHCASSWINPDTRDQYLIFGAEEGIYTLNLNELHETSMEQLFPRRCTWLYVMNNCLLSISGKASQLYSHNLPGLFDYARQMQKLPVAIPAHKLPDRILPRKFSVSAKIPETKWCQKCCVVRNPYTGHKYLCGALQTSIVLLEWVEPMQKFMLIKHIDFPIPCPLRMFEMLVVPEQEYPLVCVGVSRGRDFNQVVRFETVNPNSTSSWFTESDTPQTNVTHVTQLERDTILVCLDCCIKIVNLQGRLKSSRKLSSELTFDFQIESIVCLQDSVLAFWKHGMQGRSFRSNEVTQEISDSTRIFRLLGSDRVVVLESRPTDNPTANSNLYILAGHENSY
CLK1, sequence (P49759 whole entry): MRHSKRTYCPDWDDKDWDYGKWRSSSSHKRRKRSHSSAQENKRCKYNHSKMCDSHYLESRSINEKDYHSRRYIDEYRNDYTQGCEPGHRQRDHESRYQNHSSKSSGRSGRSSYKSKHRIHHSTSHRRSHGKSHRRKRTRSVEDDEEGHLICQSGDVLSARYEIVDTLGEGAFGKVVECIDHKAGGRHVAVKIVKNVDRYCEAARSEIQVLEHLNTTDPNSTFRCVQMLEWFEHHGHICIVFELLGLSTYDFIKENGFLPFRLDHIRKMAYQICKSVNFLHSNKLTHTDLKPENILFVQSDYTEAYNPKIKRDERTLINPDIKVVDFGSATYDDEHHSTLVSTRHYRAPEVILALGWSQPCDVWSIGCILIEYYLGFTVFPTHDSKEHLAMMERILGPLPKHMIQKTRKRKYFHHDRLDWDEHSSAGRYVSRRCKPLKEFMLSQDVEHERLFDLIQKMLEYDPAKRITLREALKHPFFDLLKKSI
T1 sequence (Q8NI60 whole entry): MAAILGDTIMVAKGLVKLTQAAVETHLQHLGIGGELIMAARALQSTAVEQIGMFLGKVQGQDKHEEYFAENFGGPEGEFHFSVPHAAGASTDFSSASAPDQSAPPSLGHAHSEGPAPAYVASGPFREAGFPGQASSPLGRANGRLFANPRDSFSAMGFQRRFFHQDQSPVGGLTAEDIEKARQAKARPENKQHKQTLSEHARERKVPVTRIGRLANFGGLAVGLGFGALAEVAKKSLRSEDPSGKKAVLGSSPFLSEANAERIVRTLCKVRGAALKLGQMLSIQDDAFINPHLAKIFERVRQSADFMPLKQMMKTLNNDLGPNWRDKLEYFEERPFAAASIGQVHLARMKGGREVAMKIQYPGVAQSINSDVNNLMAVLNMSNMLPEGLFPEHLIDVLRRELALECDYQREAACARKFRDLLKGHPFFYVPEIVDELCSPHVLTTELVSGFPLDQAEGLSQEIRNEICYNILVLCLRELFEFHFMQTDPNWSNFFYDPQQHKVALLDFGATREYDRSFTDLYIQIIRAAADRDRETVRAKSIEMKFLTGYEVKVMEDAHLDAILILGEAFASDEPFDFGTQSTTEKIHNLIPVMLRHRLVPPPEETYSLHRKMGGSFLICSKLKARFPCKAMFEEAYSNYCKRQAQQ
IRAK3, sequence (Q9Y616 whole entry): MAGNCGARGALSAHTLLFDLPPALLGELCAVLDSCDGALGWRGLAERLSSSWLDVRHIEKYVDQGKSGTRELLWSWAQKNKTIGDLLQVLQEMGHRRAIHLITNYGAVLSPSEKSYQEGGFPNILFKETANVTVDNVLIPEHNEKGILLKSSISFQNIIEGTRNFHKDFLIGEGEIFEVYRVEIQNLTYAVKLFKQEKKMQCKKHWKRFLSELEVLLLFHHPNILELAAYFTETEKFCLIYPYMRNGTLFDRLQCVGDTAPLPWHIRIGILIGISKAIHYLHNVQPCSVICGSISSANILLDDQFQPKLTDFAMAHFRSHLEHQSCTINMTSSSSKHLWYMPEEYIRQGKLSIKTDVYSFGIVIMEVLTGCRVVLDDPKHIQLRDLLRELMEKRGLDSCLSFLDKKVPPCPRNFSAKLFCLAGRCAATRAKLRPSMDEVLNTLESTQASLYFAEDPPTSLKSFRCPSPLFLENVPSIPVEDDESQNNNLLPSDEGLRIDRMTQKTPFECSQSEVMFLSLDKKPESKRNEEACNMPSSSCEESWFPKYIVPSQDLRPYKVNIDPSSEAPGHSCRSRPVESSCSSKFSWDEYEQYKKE

For the compound `COc1ccc(-c2cnccc2-c2cnc(NC(=O)C(C)C)s2)c(C(F)(F)F)c1` [CRT0105446, N-{5-[3-(4-Methoxy-2-trifluoromethyl-phenyl)-pyridin-4-yl]-hiazol-2-yl}-isobutyramide], the remaining binding at 10 µM was 98% on ADCK3; 24% on CDK3; 85% at CLK1; 100% at DLK; 100% on DRAK2; 76% on DYRK1A. Also, the remaining binding at 10 µM was 20% at FLT3(D835Y); 100% on GRK4; 89% on IRAK3; 34% at JNK1; 100% on LYN; 58% at MAP4K3. For the same compound, the remaining binding at 10 µM at NDR2 was 82%; on PIK3CD it was 100%; at PIP5K2C it was 3%; on PKMYT1 it was 100%; at RET(V804L) it was 99%; in test [1], 16%. For the same compound, the remaining binding at 10 µM on SRPK3 was 93%; at SgK110, 100%; on TESK1 it was 96%; at TSSK1B, 80%; at WEE2, 100%.

With `Cc1ccc(-c2cnccc2-c2cnc(Nc3ccc(O)cc3)s2)c(Cl)c1` [CRT0105950, 4-{5-[3-(2-Chloro-4-methyl-phenyl)-pyridin-4-yl]-thiazol-2-ylamino}-phenol], the remaining binding at 10 µM is 56% on ADCK3; 7.7% on CDK3; 0.4% at CLK1; 100% on DLK; 100% on DRAK2; 30% at DYRK1A. Besides, the remaining binding at 10 µM came to 1.2% at FLT3(D835Y); 89% at GRK4; 8.1% on IRAK3; 40% on JNK1; 26% at LYN; 18% on MAP4K3. Further, the remaining binding at 10 µM on NDR2 came to 80%; at PIK3CD, 100%; at PIP5K2C, 2.3%; at PKMYT1, 100%; on RET(V804L), 5.8%; in test [1] it was 2.9%. The remaining binding at 10 µM at SRPK3 was 62%; at SgK110, 25%; on TESK1, 20%; on TSSK1B it was 100%; at WEE2, 100%.
